{
  "source": "paper PMC8589421",
  "about": "“Impact of Type II LRRK2 inhibitors on signaling and mitophagy” (Biochemical Journal, 2021)",
  "key": {"[1]": {"system": "Rab10 pThr73, LRRK2 [G2019S]", "assay": "Rab10 Thr73 phospho-immunoblot in LRRK2[G2019S] knock-in MEFs", "format": "cell-based, mouse", "conditions": "LRRK2[G2019S] knock-in MEFs, 2 h, read-out: LRRK2 [G2019S] Rab10 pThr73 IC50", "procedure": "(§1) Wild-type and homozygous LRRK2 [R1441C] (Jax, stock number: 009346), LRRK2[G2019S] Taconic, (model 13940) and LRRK2 [A2016T] (Jax, stock number: 021828)[7] knock-in MEF cells were isolated from littermate-matched mouse embryos on a C57BL/6J background at day E12.5 as described previously. MEFs were grown in Dulbecco's modified Eagle medium (DMEM GIBCO, #11960-085) containing 10% (by vol) fetal bovine serum (FBS), 2 mM L-glutamine, 100 U/ml penicillin, and […] streptomycin supplemented with non-essential amino acids and 1 mM sodium pyruvate. Human embryonic kidney 293 (HEK293) (#ATCC CRL-1573) and HeLa (#ATCC CCL-2) cells were purchased from American Tissue Culture Collection (ATCC) and cultured in DMEM containing 10% (by vol) FBS, 2 mM L-glutamine, 100 U/ml penicillin, and […] streptomycin. All cells were grown at 37°C, 5% (by vol) CO2 in a humidified atmosphere and regularly tested for mycoplasma contamination.\n(§2) Inhibitors were dissolved in dimethyl sulfoxide (DMSO) (Sigma, #D2650). The inhibitors were diluted 1000× into cell medium. The equivalent volume of DMSO was added to the minus inhibitor controls. Experiments were performed in six-well plates, 10 cm dishes or 15 cm dishes depending on the amount of cell extract required.\nCells were lysed in an ice-cold lysis buffer containing 50 mM Tris–HCl, pH 7.4, 1% (by vol) Triton X-100, 10% (by vol) glycerol, 150 mM NaCl, 1 mM sodium orthovanadate, 50 mM NaF, 10 mM 2-glycerophosphate, 5 mM sodium pyrophosphate, 1 µg/ml microcystin-LR, and cOmplete EDTA-free protease inhibitor cocktail (Roche, #11836170001). Lysates were incubated on ice for 30 min and clarified by centrifugation at 20 800×g at 4°C for 20 min. Supernatants were quantified by Bradford assay (Bio-Rad Protein Assay Dye Reagent Concentrate #5000006) and samples prepared in 1× lithium dodecyl sulfate sample buffer final concentration (NuPage LDS Sample buffer 4× Invitrogen, #NP0008). When not deployed immediately, lysates were snap-frozen in liquid nitrogen and stored at −80°C until use. […]"}, "[2]": {"system": "Rab29 mediated relocalization of LRRK2 to the Golgi apparatus", "assay": "Rab29 mediated recruitment of LRRK2 to the Golgi, immunofluorescence in HeLa cells", "format": "cell-based, human", "conditions": "5 μM GZD-824 or 1 μM GSK3357679A for 4 h", "procedure": "HeLa cells were seeded on coverslips and transfected with the plasmid reported in each image 24 h before fixation. Following the treatments with the inhibitors described in figure legends, cells were washed twice in DPBS and fixed with 3.7% Paraformaldehyde pH 7.3 (Agar scientific, #R1026), 200 mM HEPES, for 20 min. Cells were then washed twice with DMEM, 20 mM HEPES, and then incubated for 10 min with DMEM, 10 mM HEPES. After two washes in DPBS, fixed cells were permeabilized with 0.2% (by vol) NP-40 in DPBS for 10 min. Cells were blocked using 1% (by mass) BSA in DPBS, then incubated for 1 h with primary antibodies diluted in 1% (by mass) BSA in DPBS, washed three times in 0.2% (by mass) BSA in DPBS, and incubated for 1 h with secondary antibodies. The coverslips were washed three times with 0.2% (by mass) BSA in PBS. Coverslips were washed once more in double distilled water and mounted on slides (VWR, #631-0909) using ProLong™ Diamond Antifade Mountant (ThermoFisher, #P36961). For localization of the Golgi compartment, Golgin-97 was stained with rabbit anti-GM97 (CST, #D8P2K) and visualized with goat anti-rabbit conjugated to Alexa Fluor 405 (Life Technologies, #P10994). HA-Rab29 was stained with mouse anti-HA (Abcam, clone HA.C5 #ab18181) and visualized with goat anti-mouse conjugated to Alexa Fluor 594 (Life Technologies, #A-11032). […]"}, "[3]": {"system": "LRRK2 Ser935 phosphorylation, LRRK2[G2019S]", "assay": "LRRK2 Ser935 phospho-immunoblot in LRRK2[G2019S] knock-in MEFs", "format": "cell-based, mouse", "conditions": "Figure 4B", "procedure": "as §1, with “All cells were grown at 37°C, 5% (by vol) CO2 in a humidified atmosphere and regularly tested for mycoplasma contamination.” left out\nCells were lysed in an ice-cold lysis buffer containing 50 mM Tris–HCl, pH 7.4, 1% (by vol) Triton X-100, 10% (by vol) glycerol, 150 mM NaCl, 1 mM sodium orthovanadate, 50 mM NaF, 10 mM 2-glycerophosphate, 5 mM sodium pyrophosphate, 1 µg/ml microcystin-LR, and cOmplete EDTA-free protease inhibitor cocktail (Roche, #11836170001). […] Supernatants were quantified by Bradford assay (Bio-Rad Protein Assay Dye Reagent Concentrate #5000006) and samples prepared in 1× lithium dodecyl sulfate sample buffer final concentration (NuPage LDS Sample buffer 4× Invitrogen, #NP0008). […]"}, "[4]": {"system": "LRRK2 Ser935 phosphorylation, LRRK2[R1441C]", "assay": "LRRK2 Ser935 phospho-immunoblot in LRRK2[R1441C] knock-in MEFs", "format": "cell-based, mouse", "procedure": "as §1, §2\nCells were lysed in an ice-cold lysis buffer containing 50 mM Tris–HCl, pH 7.4, 1% (by vol) Triton X-100, 10% (by vol) glycerol, 150 mM NaCl, 1 mM sodium orthovanadate, 50 mM NaF, 10 mM 2-glycerophosphate, 5 mM sodium pyrophosphate, 1 µg/ml microcystin-LR, and cOmplete EDTA-free protease inhibitor cocktail (Roche, #11836170001). Lysates were incubated on ice for 30 min and clarified by centrifugation at 20 800×g at 4°C for 20 min. Supernatants were quantified by Bradford assay (Bio-Rad Protein Assay Dye Reagent Concentrate #5000006) and samples prepared in 1× lithium dodecyl sulfate sample buffer final concentration (NuPage LDS Sample buffer 4× Invitrogen, #NP0008). When not deployed immediately, lysates were snap-frozen in liquid nitrogen and stored at −80°C until use.\nCell extracts were mixed with a quarter of a volume of NuPage LDS Sample buffer 4× Invitrogen and heated at 95°C for 5 min. […] At the end of electrophoresis, proteins were electrophoretically transferred onto the nitrocellulose membrane (GE Healthcare, Amersham Protran Supported 0.45 µm NC) at 100 V for 90 min on ice in the transfer buffer (48 mM Tris–HCl and 39 mM glycine supplemented with 20% methanol). Transferred membrane was blocked with 5% (w/v) skim milk powder dissolved in TBS-T [20 mM Tris–HCl, pH 7.5, 150 mM NaCl and 0.1% (v/v) Tween 20] at room temperature for 1 h. […]"}},
  "note": "Like-named read-outs stand apart in the source and are kept apart here.",
  "data": [
    {"smiles": "Cc1ccc(C(=O)Nc2ccc(CN3CCN(C)CC3)c(C(F)(F)F)c2)cc1C#Cc1cnc2[nH]ncc2c1", "note": "[GZD-824]", "values": [
      {"measurement": "IC50", "setting": "[1]", "result": 233, "unit": "nM"},
      {"measurement": "IC50", "setting": "[1]; Mus musculus", "result": 233, "unit": "nM"},
      {"measurement": "impact on Rab29 mediated recruitment of LRRK2 to the Golgi", "setting": "[2]", "result": "did not significantly impact"},
      {"measurement": "effect on Ser935 phosphorylation in LRRK2[G2019S] cells", "setting": "[3]", "result": "did not impact Ser935 phosphorylation"},
      {"measurement": "time at which Ser935 phosphorylation plateaued", "setting": "[4]; LRRK2[R1441C] cells, 1 μM", "result": 160, "unit": "min"},
      {"measurement": "time by which Ser935 phosphorylation increased", "setting": "[4]; LRRK2[R1441C] cells, 1 μM", "result": "≤ 40", "unit": "min"},
      {"measurement": "effect on Ser935 phosphorylation in LRRK2[R1441C] knock-in cells", "setting": "[4]; dose and time dependent", "result": "rescue Ser935 phosphorylation"}
    ]}
  ]
}
